ChEMBL document CHEMBL1201862, “PubChem BioAssay data set” (2004)
Activity calls are given as the source filed them.

Key:
Bcl-2-related protein A1 = target: T1, Bcl-2-related protein A1 (Mus musculus, UniProt Q07440); type: functional;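 note: confirmatory dose–response counterscreen on Bfl-1, used to check hits from a UBC13 polyubiquitin inhibitor campaign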
T1 sequence (Q07440 whole entry): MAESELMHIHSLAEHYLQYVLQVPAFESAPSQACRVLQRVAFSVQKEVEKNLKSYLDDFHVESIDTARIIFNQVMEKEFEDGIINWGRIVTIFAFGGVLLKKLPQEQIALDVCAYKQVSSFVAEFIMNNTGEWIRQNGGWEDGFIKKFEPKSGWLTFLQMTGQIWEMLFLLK

[1] = target: T2, Ubiquitin-conjugating enzyme E2 N (Homo sapiens, UniProt P61088); type: functional
T2 sequence (P61088 whole entry): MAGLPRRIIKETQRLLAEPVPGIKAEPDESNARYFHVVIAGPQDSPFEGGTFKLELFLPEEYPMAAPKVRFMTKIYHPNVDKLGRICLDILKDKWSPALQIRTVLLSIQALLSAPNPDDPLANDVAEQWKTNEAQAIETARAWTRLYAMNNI

[2] = target: T2, Ubiquitin-conjugating enzyme E2 N; type: functional; remark: listed apart in the source
[3] = target: T3, Orexin/Hypocretin receptor type 1 (Homo sapiens, UniProt O43613); assay: Homogeneous Time Resolved Fluorescence (HTRF)-based cell-based high throughput dose response assay for antagonists of the orexin 1 receptor (OX1R; HCRTR1). [Related pubchem assays (depositor defined):AID434989, AID435008, AID463079, AID485270, AID492963, AID492964, AID492965, AID493232, AID504717, AID504718]; type: functional
T3 sequence (O43613 whole entry): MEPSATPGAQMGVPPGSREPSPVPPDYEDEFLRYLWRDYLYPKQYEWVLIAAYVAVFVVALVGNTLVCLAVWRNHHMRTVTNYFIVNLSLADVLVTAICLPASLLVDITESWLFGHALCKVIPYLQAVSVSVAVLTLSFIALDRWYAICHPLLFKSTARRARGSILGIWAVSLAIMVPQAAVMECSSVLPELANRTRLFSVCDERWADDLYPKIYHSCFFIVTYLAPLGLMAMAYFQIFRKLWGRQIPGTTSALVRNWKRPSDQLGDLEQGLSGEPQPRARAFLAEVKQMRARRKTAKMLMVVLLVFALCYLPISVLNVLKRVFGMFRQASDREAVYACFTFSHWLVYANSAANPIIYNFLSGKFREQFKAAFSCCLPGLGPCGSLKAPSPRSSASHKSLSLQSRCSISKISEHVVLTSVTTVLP

[4] = target: T4, Replicative DNA helicase DnaB (Mycobacterium tuberculosis, UniProt P9WMR3); assay: DnaB intein splicing inhibitors, dose response, biochemical, cell-free fluorescence (AID 449749); type: functional
T4 sequence (P9WMR3 whole entry): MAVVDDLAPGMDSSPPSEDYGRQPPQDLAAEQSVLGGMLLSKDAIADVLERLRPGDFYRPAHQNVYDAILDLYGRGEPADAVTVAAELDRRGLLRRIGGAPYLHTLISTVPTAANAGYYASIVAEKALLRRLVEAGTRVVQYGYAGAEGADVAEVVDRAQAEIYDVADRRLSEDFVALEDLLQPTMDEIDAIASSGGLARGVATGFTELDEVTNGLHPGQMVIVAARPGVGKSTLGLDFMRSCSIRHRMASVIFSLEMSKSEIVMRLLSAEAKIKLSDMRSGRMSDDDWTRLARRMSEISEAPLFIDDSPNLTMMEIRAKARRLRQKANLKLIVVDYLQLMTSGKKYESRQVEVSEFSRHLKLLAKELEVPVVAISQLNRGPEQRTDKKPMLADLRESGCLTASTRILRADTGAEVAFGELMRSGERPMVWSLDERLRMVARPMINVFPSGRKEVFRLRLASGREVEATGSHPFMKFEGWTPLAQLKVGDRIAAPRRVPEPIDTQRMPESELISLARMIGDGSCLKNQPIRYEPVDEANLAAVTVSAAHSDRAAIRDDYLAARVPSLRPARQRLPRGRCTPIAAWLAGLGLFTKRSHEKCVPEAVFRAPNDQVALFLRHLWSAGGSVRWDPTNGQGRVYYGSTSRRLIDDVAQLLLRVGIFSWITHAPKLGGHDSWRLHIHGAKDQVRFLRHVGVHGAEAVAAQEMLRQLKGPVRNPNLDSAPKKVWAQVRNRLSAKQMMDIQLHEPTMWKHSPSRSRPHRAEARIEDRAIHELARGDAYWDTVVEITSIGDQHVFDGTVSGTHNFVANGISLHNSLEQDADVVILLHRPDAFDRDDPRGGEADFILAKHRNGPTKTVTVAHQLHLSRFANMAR

[5] = target: T3, Orexin/Hypocretin receptor type 1; assay: Fluorescence-based cell-based high throughput dose response assay for antagonists of the orexin 1 receptor (OX1R; HCRTR1). [Related pubchem assays (depositor defined):AID434989, AID435008, AID463079, AID485270, AID492963, AID492964, AID492965, AID493232, AID504717, AID504718]; type: functional
Protein RecA = target: T5, Protein RecA (Mycobacterium tuberculosis, UniProt P9WHJ3); assay: Fluorescence Cell-Free Homogeneous Dose Retest to Identify Inhibitors of RecA-Intein Splicing Activity. [Related pubchem assays (depositor defined):AID2097, AID2223, AID489010, AID492950]; type: functional
T5 sequence (P9WHJ3 whole entry): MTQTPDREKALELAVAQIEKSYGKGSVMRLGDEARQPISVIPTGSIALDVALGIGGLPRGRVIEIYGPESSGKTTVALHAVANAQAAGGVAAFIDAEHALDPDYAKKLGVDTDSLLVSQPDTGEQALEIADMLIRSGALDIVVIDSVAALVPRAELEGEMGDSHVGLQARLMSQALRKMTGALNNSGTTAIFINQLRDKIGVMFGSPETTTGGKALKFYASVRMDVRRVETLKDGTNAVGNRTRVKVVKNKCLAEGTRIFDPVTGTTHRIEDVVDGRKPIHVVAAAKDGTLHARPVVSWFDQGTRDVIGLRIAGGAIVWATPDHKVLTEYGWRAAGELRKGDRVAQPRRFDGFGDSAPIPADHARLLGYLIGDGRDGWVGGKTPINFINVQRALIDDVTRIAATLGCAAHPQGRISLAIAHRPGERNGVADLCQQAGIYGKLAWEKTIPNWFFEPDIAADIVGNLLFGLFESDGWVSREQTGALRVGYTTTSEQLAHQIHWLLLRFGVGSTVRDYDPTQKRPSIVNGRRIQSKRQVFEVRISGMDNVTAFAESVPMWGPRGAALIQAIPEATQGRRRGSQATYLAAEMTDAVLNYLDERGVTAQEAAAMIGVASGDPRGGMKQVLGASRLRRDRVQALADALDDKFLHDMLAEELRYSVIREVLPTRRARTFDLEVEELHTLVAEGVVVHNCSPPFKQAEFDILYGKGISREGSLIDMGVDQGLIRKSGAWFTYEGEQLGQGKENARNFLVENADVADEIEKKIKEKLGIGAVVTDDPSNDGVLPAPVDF

CHO-K1 = assay: (§1) Counterscreen for antagonists of the orexin 1 receptor (OX1R; HCRTR1): Homogeneous time resolved fluorescence (HTRF)-based cell-based dose response assay to identify antagonists of the parental CHO-K1 cell line. [Related pubchem assays (depositor defined):AID434989, AID435008, AID463079, AID485270, AID492963, AID492964, AID492965, AID493232, AID504699, AID504701]; type: functional; details: Cricetulus griseus
[6] = as §1, with “Fluorescence-based” for “Homogeneous time resolved fluorescence (HTRF)-based”, “cell-based high throughput” for “cell-based”, “CHO” for “CHO-K1”; type: functional
Caspase-6 = target: T6, Caspase-6 (Homo sapiens, UniProt P55212); assay: inhibition of CASP6 peptide cleavage – biochemical, VEID-R110 fluorescence, cherry-pick, dose response (AID 720632)
T6 sequence (P55212 whole entry): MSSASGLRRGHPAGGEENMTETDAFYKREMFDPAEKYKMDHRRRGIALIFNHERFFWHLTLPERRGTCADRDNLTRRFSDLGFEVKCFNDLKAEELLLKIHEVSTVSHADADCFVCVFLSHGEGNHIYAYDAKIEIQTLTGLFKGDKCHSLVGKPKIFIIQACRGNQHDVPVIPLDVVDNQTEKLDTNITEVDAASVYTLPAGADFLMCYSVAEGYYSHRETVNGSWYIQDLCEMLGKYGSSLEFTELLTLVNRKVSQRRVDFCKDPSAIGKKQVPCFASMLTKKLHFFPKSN

[7] = target: Intestinal-type alkaline phosphatase (Mus musculus, UniProt P24822); assay: mouse intestinal alkaline phosphatase activators, dose response, biochemical, luminescence, uHTS hits (AID 488783); type: functional
Intestinal-type alkaline phosphatase (Mus musculus, UniProt P24822), sequence (P24822 whole entry): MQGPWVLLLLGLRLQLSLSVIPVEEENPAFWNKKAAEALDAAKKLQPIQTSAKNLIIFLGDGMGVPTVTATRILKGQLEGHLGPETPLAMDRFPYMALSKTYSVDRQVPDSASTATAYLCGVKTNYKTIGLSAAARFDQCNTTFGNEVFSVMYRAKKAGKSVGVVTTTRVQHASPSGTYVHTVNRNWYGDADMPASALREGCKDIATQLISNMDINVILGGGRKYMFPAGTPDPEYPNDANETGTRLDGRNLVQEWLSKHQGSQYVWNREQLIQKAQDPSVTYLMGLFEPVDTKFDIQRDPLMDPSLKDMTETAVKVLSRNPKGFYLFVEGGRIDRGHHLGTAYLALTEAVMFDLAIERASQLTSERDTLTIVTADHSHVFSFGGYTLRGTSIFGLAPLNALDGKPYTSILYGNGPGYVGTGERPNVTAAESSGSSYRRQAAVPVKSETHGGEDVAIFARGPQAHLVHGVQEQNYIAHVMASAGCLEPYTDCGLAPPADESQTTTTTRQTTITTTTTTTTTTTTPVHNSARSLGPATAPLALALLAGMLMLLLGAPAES

[8] = target: Intestinal-type alkaline phosphatase (Homo sapiens, UniProt P09923); assay: activation of human intestinal alkaline phosphatase – biochemical, dose response (AID 488873); type: functional
Intestinal-type alkaline phosphatase (Homo sapiens, UniProt P09923), sequence (P09923 whole entry): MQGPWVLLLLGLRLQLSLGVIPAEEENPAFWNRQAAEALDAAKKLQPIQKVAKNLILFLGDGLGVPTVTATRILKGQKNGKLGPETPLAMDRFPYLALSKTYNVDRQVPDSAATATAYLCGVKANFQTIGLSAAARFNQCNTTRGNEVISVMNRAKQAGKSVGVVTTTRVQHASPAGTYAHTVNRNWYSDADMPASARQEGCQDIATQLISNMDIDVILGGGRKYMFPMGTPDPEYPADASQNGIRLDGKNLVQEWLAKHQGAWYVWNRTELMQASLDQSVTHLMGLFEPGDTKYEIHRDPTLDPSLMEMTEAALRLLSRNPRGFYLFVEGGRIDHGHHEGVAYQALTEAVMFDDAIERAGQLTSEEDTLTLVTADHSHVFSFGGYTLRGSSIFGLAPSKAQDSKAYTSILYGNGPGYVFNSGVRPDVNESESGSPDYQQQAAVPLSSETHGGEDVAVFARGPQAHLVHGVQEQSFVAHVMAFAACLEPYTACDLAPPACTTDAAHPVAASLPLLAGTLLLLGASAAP

[9] = target: T7, Alkaline phosphatase, tissue-nonspecific isozyme (Homo sapiens, UniProt P05186); assay: activation of tissue-nonspecific alkaline phosphatase – biochemical, TNAP isozyme, mouse IAP uHTS hits, selectivity assay for mouse IAP activator project, dose response (AID 488880); type: functional
T7 sequence (P05186 whole entry): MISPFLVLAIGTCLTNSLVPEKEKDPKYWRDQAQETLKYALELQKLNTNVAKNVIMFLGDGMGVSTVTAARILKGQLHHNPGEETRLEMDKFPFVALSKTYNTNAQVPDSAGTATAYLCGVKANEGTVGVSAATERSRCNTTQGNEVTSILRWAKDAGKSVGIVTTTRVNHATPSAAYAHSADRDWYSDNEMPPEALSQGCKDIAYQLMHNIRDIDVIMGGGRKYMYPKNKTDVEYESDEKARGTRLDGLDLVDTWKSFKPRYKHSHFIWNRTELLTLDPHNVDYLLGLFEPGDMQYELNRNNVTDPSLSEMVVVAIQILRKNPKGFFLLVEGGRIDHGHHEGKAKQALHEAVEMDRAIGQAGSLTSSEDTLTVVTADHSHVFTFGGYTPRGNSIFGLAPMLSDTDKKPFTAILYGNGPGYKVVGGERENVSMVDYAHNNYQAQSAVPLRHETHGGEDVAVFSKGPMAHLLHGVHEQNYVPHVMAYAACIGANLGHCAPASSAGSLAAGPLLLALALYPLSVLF

CCOC(=O)c1nn(-c2ccccc2)c(=O)cc1OCC(=O)Nc1ccccc1OCC
IC50 (Bcl-2-related protein A1): > 20 µM (inactive)
IC50 [1]: > 20 µM (inactive)
IC50 [2]: 14.9 µM (active)

COc1ccc(S(=O)(=O)Nc2c(O)ccc3ccccc23)cc1OC
IC50 [3]: 3.15 µM (active)
AC50 [4]: 5.46 µM (active)
IC50 [5]: > 16.6 µM (inactive)
EC50 (Protein RecA): 2.85 µM (active)
IC50 (CHO-K1): 27 µM (inactive)
IC50 [6]: > 49.8 µM (inactive)

O=C(COC(=O)c1ccc(Br)o1)Nc1ncc([N+](=O)[O-])s1
AC50 (Caspase-6): 8.5 µM (active)
EC50 [7]: 39.9 µM (active)
EC50 [8]: 68.4 µM (active)
EC50 [9]: 85.8 µM (active)
